US20090311217A1, “3-SUBSTITUTED-1H-INDOLE COMPOUNDS, THEIR USE AS MTOR KINASE AND PI3 KINASE INHIBITORS, AND THEIR SYNTHESES” (priority 2008, published 2009)
Read-outs that look alike come from different tables or passages of the source.

Tests used:
Format in all cases: biochemical
human TOR = molecular target: T1, human TOR (Homo sapiens, UniProt P42345); assay: mTOR enzyme assay (DELFIA, His6-S6K substrate)
T1 construct: FLAG

PI3K-alpha = PI3K-alpha (Homo sapiens, UniProt P42336); assay: PI3K-alpha fluorescence polarization assay
PI3K-gamma = PI3K-gamma (Homo sapiens, UniProt P48736); assay: PI3K-gamma fluorescence polarization assay; details: PI3Kγ Avg. IC50
In short: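 Inhibition is derived from a polarization signal: after a 1 h, 25° C kinase step (25 μM ATP, 2.5 μM diC8-PIP2, pH 7), EDTA stops the reaction and the GRP1 PH domain/TMR-IP4 pair reports lipid product.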

[1] = read-out: mTOR Kinase Avg. IC50

Chain of PI3K-alpha (P42336 whole entry, species assumed): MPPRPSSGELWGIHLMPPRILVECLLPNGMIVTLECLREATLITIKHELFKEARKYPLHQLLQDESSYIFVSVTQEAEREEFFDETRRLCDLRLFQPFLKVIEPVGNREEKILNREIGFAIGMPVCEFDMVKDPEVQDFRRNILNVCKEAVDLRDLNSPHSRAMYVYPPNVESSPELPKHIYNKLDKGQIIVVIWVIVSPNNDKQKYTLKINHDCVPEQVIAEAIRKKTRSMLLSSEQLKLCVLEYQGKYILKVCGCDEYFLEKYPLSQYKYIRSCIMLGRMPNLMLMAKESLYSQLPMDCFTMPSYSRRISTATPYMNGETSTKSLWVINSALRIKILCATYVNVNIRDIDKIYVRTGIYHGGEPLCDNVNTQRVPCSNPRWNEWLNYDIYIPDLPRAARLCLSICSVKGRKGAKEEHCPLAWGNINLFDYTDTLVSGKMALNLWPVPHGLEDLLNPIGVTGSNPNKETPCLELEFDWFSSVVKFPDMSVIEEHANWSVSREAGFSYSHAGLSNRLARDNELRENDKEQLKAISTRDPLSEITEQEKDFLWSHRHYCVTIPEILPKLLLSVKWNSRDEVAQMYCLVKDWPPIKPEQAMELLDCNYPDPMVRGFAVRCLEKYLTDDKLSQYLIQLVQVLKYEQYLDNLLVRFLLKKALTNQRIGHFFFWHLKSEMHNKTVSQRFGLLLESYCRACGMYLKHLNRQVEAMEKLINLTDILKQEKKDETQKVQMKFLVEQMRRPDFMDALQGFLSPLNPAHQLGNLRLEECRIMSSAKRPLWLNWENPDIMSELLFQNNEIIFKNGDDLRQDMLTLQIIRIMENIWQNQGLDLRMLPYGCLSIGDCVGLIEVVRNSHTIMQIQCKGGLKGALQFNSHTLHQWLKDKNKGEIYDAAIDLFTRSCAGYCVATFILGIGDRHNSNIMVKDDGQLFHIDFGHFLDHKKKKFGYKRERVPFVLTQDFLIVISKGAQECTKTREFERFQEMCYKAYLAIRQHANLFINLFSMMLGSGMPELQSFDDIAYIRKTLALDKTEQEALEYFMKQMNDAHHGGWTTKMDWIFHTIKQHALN
Chain of PI3K-alpha (P27986 whole entry partner, species assumed): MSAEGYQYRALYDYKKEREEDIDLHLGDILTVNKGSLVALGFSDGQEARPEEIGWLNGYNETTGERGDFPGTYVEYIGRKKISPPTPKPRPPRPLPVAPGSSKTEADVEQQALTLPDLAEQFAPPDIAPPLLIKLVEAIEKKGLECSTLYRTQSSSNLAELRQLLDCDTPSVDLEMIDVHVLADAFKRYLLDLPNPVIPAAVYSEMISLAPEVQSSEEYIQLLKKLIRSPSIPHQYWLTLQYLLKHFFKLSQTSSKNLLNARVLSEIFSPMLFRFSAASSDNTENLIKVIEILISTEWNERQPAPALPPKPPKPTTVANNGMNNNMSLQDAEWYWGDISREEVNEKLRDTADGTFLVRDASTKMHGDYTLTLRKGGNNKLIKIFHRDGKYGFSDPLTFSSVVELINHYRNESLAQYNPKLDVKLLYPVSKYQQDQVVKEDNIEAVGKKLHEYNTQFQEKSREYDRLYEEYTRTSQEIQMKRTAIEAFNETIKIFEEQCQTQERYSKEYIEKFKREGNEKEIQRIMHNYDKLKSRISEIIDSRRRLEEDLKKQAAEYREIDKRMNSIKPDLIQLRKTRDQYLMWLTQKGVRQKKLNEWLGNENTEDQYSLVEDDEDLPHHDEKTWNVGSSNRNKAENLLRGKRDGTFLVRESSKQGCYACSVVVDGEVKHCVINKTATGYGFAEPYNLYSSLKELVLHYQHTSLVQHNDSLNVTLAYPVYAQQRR
Chain of PI3K-gamma (P48736 whole entry, species assumed, the tested form may be a part): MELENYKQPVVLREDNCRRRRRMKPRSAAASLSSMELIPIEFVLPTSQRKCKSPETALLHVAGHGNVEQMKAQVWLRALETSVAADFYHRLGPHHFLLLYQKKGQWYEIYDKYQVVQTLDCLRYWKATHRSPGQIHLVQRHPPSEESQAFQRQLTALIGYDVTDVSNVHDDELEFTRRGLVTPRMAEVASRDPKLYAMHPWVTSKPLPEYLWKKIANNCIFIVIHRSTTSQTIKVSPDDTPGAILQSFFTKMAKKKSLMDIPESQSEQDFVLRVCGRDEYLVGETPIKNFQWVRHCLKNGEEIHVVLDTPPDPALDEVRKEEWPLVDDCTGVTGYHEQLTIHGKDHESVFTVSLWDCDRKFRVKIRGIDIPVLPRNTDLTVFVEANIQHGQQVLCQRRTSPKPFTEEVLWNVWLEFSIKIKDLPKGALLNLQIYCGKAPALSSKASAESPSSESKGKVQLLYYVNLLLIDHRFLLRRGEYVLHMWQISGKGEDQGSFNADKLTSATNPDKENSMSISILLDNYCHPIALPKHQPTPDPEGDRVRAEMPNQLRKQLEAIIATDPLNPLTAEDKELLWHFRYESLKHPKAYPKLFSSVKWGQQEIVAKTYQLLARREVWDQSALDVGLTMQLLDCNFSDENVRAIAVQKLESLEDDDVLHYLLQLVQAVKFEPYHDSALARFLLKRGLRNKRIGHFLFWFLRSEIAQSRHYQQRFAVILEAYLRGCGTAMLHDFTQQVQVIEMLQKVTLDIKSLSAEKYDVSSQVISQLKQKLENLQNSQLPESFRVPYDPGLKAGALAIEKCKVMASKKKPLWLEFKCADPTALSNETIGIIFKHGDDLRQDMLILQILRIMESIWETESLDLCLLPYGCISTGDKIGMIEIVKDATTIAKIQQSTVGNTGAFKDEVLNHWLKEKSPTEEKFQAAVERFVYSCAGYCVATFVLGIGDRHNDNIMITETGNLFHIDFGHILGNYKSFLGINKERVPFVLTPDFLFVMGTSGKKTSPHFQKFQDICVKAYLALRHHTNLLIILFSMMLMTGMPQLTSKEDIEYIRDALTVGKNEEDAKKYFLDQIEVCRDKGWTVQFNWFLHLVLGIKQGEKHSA

Structure (SMILES) | IC50 (human TOR; [1]) [nM] | IC50 (PI3K-alpha; read-out: PI3Kα Avg. IC50) [nM] | IC50 (human TOR; mTOR Kinase Avg. IC50) [nM] | IC50 (PI3K-alpha; PI3Kα Avg. IC50) [nM] | IC50 (PI3K-gamma) [nM]
O=C1C(=Cc2c(-c3ccccc3)[nH]c3ccccc23)Oc2ccccc21 [Example 2, 2-[(2-phenyl-1H-indol-3-yl)methylene]-1-benzofuran-3(2H)-one] | > 20000 | > 10000 |  |  | 
Cn1c(-c2ccccc2)c(C=C2Oc3ccccc3C2=O)c2ccccc21 [Example 3, 2-[(1-methyl-2-phenyl-1H-indol-3-yl)methylene]-1-benzofuran-3(2H)-one] | > 20000 | > 10000 |  |  | 
Cn1cc(C=C2Oc3ccccc3C2=O)c2ccccc21 [Example 4, 2-[(1-methyl-1H-indol-3-yl)methylene]-1-benzofuran-3(2H)-one] | > 20000 | 12300 |  |  | 
O=C1C(=Cc2c[nH]c3ccccc23)Oc2cc(O)ccc21 [Example 5, 6-hydroxy-2-(1H-indol-3-ylmethylene)-1-benzofuran-3(2H)-one] | > 20000 | > 10000 |  |  | 
O=C1C(=Cc2c(-c3ccccc3)[nH]c3ccccc23)Oc2cc(O)ccc21 [Example 6, 6-hydroxy-2-[(2-phenyl-1H-indol-3-yl)methylene]-1-benzofuran-3(2H)-one] | 2850 | 2400 |  |  | 
Cn1cc(C=C2Oc3cc(O)ccc3C2=O)c2ccccc21 [Example 8, 6-hydroxy-2-[(1-methyl-1H-indol-3-yl)methylene]-1-benzofuran-3(2H)-one] | > 20000 | > 10000 |  |  | 
O=C1C(=Cc2c[nH]c3ccccc23)Oc2cc(O)cc(O)c21 [Example 13, 4,6-dihydroxy-2-(1H-indol-3-ylmethylene)-1-benzofuran-3(2H)-one] |  |  | 9200 | 6750 | 
Cn1c(-c2ccccc2)c(C=C2Oc3cc(O)cc(O)c3C2=O)c2ccccc21 [Example 15, 4,6-dihydroxy-2-[(1-methyl-2-phenyl-1H-indol-3-yl)methylene]-1-benzofuran-3(2H)-one] | 90 |  |  | 2660 | 
O=C1/C(=C/c2c[nH]c3ccc(OCc4ccccc4)cc23)Oc2cc(O)ccc21 [Example 34, (2Z)-2-{[5-(benzyloxy)-1H-indol-3-yl]methylene}-6-hydroxy-1-benzofuran-3(2H)-one] | > 20000 | > 10000 |  |  | 
O=C1/C(=C/c2c(-c3ccc(F)cc3)[nH]c3ccccc23)Oc2cc(O)cc(O)c21 [Example 46, (2Z)-2-{[2-(4-fluorophenyl)-1H-indol-3-yl]methylene}-4,6-dihydroxy-1-benzofuran-3(2H)-one] | 123 |  |  | 1580 | 
Cc1[nH]c2ccccc2c1/C=C1\Oc2cc(O)cc(O)c2C1=O [Example 47, (2Z)-4,6-dihydroxy-2-[(2-methyl-1H-indol-3-yl)methylene]-1-benzofuran-3(2H)-one] | 500 |  |  | 3200 | 
Cc1ccc2c(/C=C3\Oc4cc(O)cc(O)c4C3=O)c[nH]c2c1 [Example 48, (2Z)-4,6-dihydroxy-2-[(6-methyl-1H-indol-3-yl)methylene]-1-benzofuran-3(2H)-one] | > 5000 | 3420 |  |  | 
Cc1cccc2c(/C=C3\Oc4cc(O)cc(O)c4C3=O)c[nH]c12 [Example 49, (2Z)-4,6-dihydroxy-2-[(7-methyl-1H-indol-3-yl)methylene]-1-benzofuran-3(2H)-one] | > 5000 | 2430 |  |  | 
O=C1/C(=C/c2cn(Cc3ccccc3)c3ccccc23)Oc2cc(O)cc(O)c21 [Example 51, (2Z)-2-[(1-benzyl-1H-indol-3-yl)methylene]-4,6-dihydroxy-1-benzofuran-3(2H)-one] | > 5000 | > 10000 |  |  | 
O=C1C(=Cc2c[nH]c3ccc(OCc4ccccc4)cc23)Oc2cc(O)cc(O)c21 [Example 52, 2-{[5-(benzyloxy)-1H-indol-3-yl]methylene}-4,6-dihydroxy-1-benzofuran-3(2H)-one] | > 5000 | 1890 |  |  | 
O=C1/C(=C/c2c[nH]c3ccc(Cl)cc23)Oc2c1ccc(O)c2O [Example 63, (2Z)-2-[(5-chloro-1H-indol-3-yl)methylene]-6,7-dihydroxy-1-benzofuran-3(2H)-one] | > 20000 | 431 |  |  | 
O=C1C(=Cc2c(-c3ccccn3)[nH]c3ccccc23)Oc2cc(O)cc(O)c21 [Example 72, 4,6-dihydroxy-2-[(2-pyridin-2-yl-1H-indol-3-yl)methylene]-1-benzofuran-3(2H)-one] |  |  | 21.2 | 3650 | 
O=C1C(=Cc2c[nH]c3ccccc23)Oc2cccc(O)c21 [Example 74, 4-hydroxy-2-(1H-indol-3-ylmethylene)-1-benzofuran-3(2H)-one] | 9800 | 12000 |  |  | 

Structure (SMILES) | IC50 (human TOR; [1]) [nM] | IC50 (PI3K-alpha; read-out: PI3Kα Avg. IC50) [nM] | IC50 (human TOR; mTOR Kinase Avg. IC50) [nM] | IC50 (PI3K-alpha; PI3Kα Avg. IC50) [nM] | IC50 (PI3K-gamma) [nM]
O=C1C(=Cc2c(-c3ccccc3)[nH]c3ccccc23)Oc2cccc(O)c21 [Example 75, 4-hydroxy-2-[(2-phenyl-1H-indol-3-yl)methylene]-1-benzofuran-3(2H)-one] | 5900 | 2520 |  |  | 
O=C1C(=Cc2c(-c3ccc(Cl)cc3)[nH]c3ccccc23)Oc2cccc(O)c21 [Example 76, 2-{[2-(4-chlorophenyl)-1H-indol-3-yl]methylene}-4-hydroxy-1-benzofuran-3(2H)-one] | 10000 | > 10000 |  |  | 
O=C1C(=Cc2c[nH]c3ccc(Br)cc23)Oc2cccc(O)c21 [Example 77, 2-[(5-bromo-1H-indol-3-yl)methylene]-4-hydroxy-1-benzofuran-3(2H)-one] | 17500 | > 10000 |  |  | 
O=C1C(=Cc2c(Br)[nH]c3ccccc23)Oc2cc(O)cc(O)c21 [Example 80, 2-[(2-bromo-1H-indol-3-yl)methylene]-4,6-dihydroxy-1-benzofuran-3(2H)-one] | 490 | > 10000 |  |  | 
O=C1C(=Cc2c(Br)[nH]c3ccccc23)Oc2c1ccc(O)c2O [Example 81, 2-[(2-bromo-1H-indol-3-yl)methylene]-6,7-dihydroxy-1-benzofuran-3(2H)-one] | > 20000 | 234 |  |  | 
Cc1c(C=C2Oc3cc(O)cc(O)c3C2=O)c2ccccc2n1CCCl [Example 92, 2-{[1-(2-chloroethyl)-2-methyl-1H-indol-3-yl]methylene}-4,6-dihydroxy-1-benzofuran-3(2H)-one] | 2600 | 2040 |  |  | 
Cc1c(C=C2Oc3cc(O)cc(O)c3C2=O)c2ccccc2n1CCCCl [Example 93, 2-{[1-(3-chloropropyl)-2-methyl-1H-indol-3-yl]methylene}-4,6-dihydroxy-1-benzofuran-3(2H)-one] | > 5000 | 2380 |  |  | 
COc1ccc2c(c1)c(C=C1Oc3cccc(O)c3C1=O)c(C)n2CCCCN1CCN(C)CC1 [Example 135, 4-hydroxy-2-({5-methoxy-2-methyl-1-[4-(4-methylpiperazin-1-yl)butyl]-1H-indol-3-yl}methylene)-1-benzofuran-3(2H)-one] |  | 1300 |  |  | 4770
COc1ccc2c(c1)c(C=C1Oc3cccc(O)c3C1=O)c(C)n2CCCCN1CCOCC1 [Example 136, 4-hydroxy-2-{[5-methoxy-2-methyl-1-(4-morpholin-4-ylbutyl)-1H-indol-3-yl]methylene}-1-benzofuran-3(2H)-one] |  | 235 |  |  | 2480
COc1ccc2c(c1)c(C=C1Oc3cccc(O)c3C1=O)c(C)n2CCCCN1CCN(CCO)CC1 [Example 137, 4-hydroxy-2-[(1-{4-[4-(2-hydroxyethyl)piperazin-1-yl]butyl}-5-methoxy-2-methyl-1H-indol-3-yl)methylene]-1-benzofuran-3(2H)-one] |  | 478 |  |  | 2770
O=C1C(=Cc2c(-c3ccccc3)n(Cc3cccnc3)c3ccccc23)Oc2cc(O)cc(O)c21 [Example 153, 4,6-dihydroxy-2-{[2-phenyl-1-(pyridin-3-ylmethyl)-1H-indol-3-yl]methylene}-1-benzofuran-3(2H)-one] | 2900 | 1580 |  |  | 
O=C1C(=Cc2c(-c3ccccc3)n(Cc3ccncc3)c3ccccc23)Oc2cc(O)cc(O)c21 [Example 154, 4,6-dihydroxy-2-{[2-phenyl-1-(pyridin-4-ylmethyl)-1H-indol-3-yl]methylene}-1-benzofuran-3(2H)-one] | 540 | 1580 |  |  | 
O=C1C(=Cc2c(-c3ccccc3)n(CCN3CCNCC3)c3ccccc23)Oc2cc(O)cc(O)c21 [Example 160, 4,6-dihydroxy-2-{[2-phenyl-1-(2-piperazin-1-ylethyl)-1H-indol-3-yl]methylene}-1-benzofuran-3(2H)-one] | 820 | 1010 |  |  | 
COc1cc2[nH]cc(C=C3Oc4cc(O)cc(O)c4C3=O)c2cc1OC [Example 181, 2-[(5,6-dimethoxy-1H-indol-3-yl)methylene]-4,6-dihydroxy-1-benzofuran-3(2H)-one] |  | 502 |  |  | 1750
N#CCCCn1cc(C=C2Oc3cc(O)cc(O)c3C2=O)c2cc(F)ccc21 [Example 231, 4-{3-[(4,6-dihydroxy-3-oxo-1-benzofuran-2(3H)-ylidene)methyl]-5-fluoro-1H-indol-1-yl}butanenitrile] |  | 3500 |  |  | > 10000
Cn1cc(C=C2Oc3cc(O)cc(O)c3C2=O)c2c(-c3ccccc3)cccc21 [Example 268, 4,6-dihydroxy-2-[(1-methyl-4-phenyl-1H-indol-3-yl)methylene]-1-benzofuran-3(2H)-one] |  | > 5740 |  |  | 2690
O=C1/C(=C/c2c(-c3ccccc3)[nH]c3ccccc23)Sc2ccccc21 [Example 274, (2Z)-2-[(2-phenyl-1H-indol-3-yl)methylene]-1-benzothiophen-3(2H)-one] |  | 287 |  |  | 255
O=C1/C(=C/c2c(-c3ccc(F)cc3)[nH]c3ccccc23)Sc2ccccc21 [Example 277, (2Z)-2-{[2-(4-fluorophenyl)-1H-indol-3-yl]methylene}-1-benzothiophen-3(2H)-one] |  | 268 |  |  | 264
